Results published in US5028726A, “Platinum amine sulfoxide complexes” (The University of Vermont and State Agricultural College, priority 1990, dated 1991).

Legend:
B16 melanoma = test: In vivo efficacy, B16 melanoma, compared to cisplatin; parameters: species or system mice; conditions: tumor s.c., drug i.p.
[1] = clinical, compared with parent complex cisplatin; cited from earlier work
L1210/DDP cells = test: In vitro cytotoxicity, DDP-resistant L1210/DDP cells; type: cell-based, murine; conditions: for Resistance Factor (R), L1210/DDP: ID50 (L1210/DDP) divided by ID50 (L1210/0), 4320 min; for IC50: L1210/DDP, 40-60 fold resistant to DDP, 72 hours, read-out: In Vitro Activity in L1210 Leukemia, L1210/DDP (ID50)
Protocol: (§1) L1210 murine leukemia cells sensitive to the cytotoxicity of DDP (L1210/0) were cultured as a suspension in McCoy's 5A medium supplemented with 5% donor horse serum and glutamine. L1210 cells, 40-60 fold resistant to DDP (L1210/DDP) or 30-fold resistant to [Pt(R,R-dach)SO4 ] (L1210/dach), were cultured in McCoy's 5A medium supplemented with 10% fetal bovine serum and glutamine. Both cell lines were grown in a humidified atmosphere to 5% CO2 : 95% air at 37° C. For testing purposes, cells were diluted to 5×10^4 cells/ml and 1 ml of cell suspension aliquoted to disposable tissue culture tubes. Test compound was then added to the appropriate tubes (40 μl/tube) to attain final concentrations of 0.01, 0.1, 1.0 and 10 μg/ml. After 72 hours, the cell concentrations of all tubes were determined using a Coulter counter. The percent growth inhibition for each drug concentration was then calculated and the ID 50 (concentration of drug required to inhibit cell growth by 50%) was derived. The resistance factor for each compound was obtained by dividing the ID50 (L1210/DDP) by the ID50 (L1210/0).
(§2) In Vitro Activity (μM) of [PtCl(R2 SO)(damch)]NO3 in L1210
(§3) ^a R = Resistance Factor which is defined as ID50 (Sensitive or […]

L1210 leukemia = test: In vivo efficacy, L1210 leukemia in mice; parameters: species or system murine (male BDR mice); conditions: days 1, 5 and 9
Protocol: (§4) Male BDR mice weighing 18-20 gm were purchased from the National Cancer Institute and housed in an environment having controlled humidity, temperature and photoperiods. The animals had food and water available ad libitum and wood chip bedding was changed daily. The L1210/0 and P388 murine leukemias were maintained as ascites tumors by weekly intraperitoneal (i.p.) inoculations of 10^6 cells For testing purposes, 10^6 tumor cells were inoculated i.p. (day 0) and mice were administered test compound i.p. on days 1, 5 and 9. Animals were observed daily for signs of toxicity and deaths and the day of death recorded for each animal that died during the 60 day observation period. The efficacy of each dose of compound tested was evaluated by calculating the percent increased life span determined by dividing the mean survival time of treated mice (using the day of death of only those animals that dies during the 60 day period) by the mean survival time of non-treated tumor bearing control animals (% T/C). […] An additional index of antitumor activity is the number of long term survivors defined as treated animals alive at the end of the study. The complexes tested and the results observed are summarized in Table 3 (L1210 leukemia) and in Table 4 (P338 leukemia). The data in Table 5 compares to the in vivo activity of [PtCl(n-Bu2 SO)](damch)NO3 with that of cisplatin.

[2] = test system: L1210/0 murine leukemia cells; test: In vitro cytotoxicity, DDP-sensitive L1210/0 cells; type: cell-based; conditions: L1210/0, DDP-sensitive; 72 hours; read-out: In Vitro Activity in L1210 Leukemia, L1210/O (ID50)
Protocol: as §1, §2

L1210/dach cells = test: In vitro cytotoxicity, [Pt(R,R-dach)SO4]-resistant L1210/dach cells; type: cell-based, murine
Protocol: as §1, §2, §3

P388 leukemia = test: In vivo efficacy, P388 leukemia in mice; parameters: species or system murine (male BDR mice); conditions: days 1, 5 and 9
Protocol: as §4

[3] = dose 3 × 12.5, complex in saline

## N.N.[Cl][Pt][Cl] [Cisplatin, cis-[PtCl2 (NH3)2], reference compound]
B16 melanoma; dose 3 × 5
  % T/C, B16 melanoma: 170%

## N.N.O=C([O-])C1(C(=O)[O-])CCC1.[Pt+2] [carboplatin, [Pt(NH3)2 (CBDCA)]]
[1]
  nephrotoxicity: reduction in the severe nephrotoxicity of the parent complex

## [PtCl(R2 SO)(damch)]NO3, R = Me [reference compound]
L1210/DDP cells
  Resistance Factor (R), L1210/DDP: 3.58
  IC50: 3.9 µM
L1210 leukemia; 3 × 100 mg/kg i.p.
  % T/C, L1210 leukemia: 152%
[2]
  IC50: 1.09 µM

## [PtCl(R2 SO)(damch)]NO3, R = n-Pr
L1210/DDP cells
  Resistance Factor (R), L1210/DDP: 4.70
  IC50: 2.92 µM
L1210 leukemia; 3 × 12.5 mg/kg i.p.
  % T/C, L1210 leukemia: 162%
L1210 leukemia; 3 × 25 mg/kg i.p.
  % T/C, L1210 leukemia: 185%
[2]
  IC50: 0.62 µM

## [PtCl(damch)(n-Bu2 SO)]^+ NO3 ^-
L1210/DDP cells
  Resistance Factor (R), L1210/DDP: 6.05
  IC50: 2.36 µM
B16 melanoma; dose 3 × 6.25, complex in saline
  % T/C, B16 melanoma: 154%
B16 melanoma; [3]
  % T/C, B16 melanoma: 136%
  figure in parentheses after % T/C (presumably long term survivors), B16 melanoma: 1/6
B16 melanoma; dose 3 × 25, complex in saline
  % T/C, B16 melanoma: 188%
L1210/dach cells; L1210/dach, 30-fold resistant to [Pt(R,R-dach)SO4], 72 hours, read-out: In Vitro Activity in L1210 Leukemia, L1210/dach (ID50)
  IC50: 5.36 µM
L1210/dach cells; resistance factor for L1210/dach versus L1210/0, 4320 min
  Resistance Factor (R), L1210/dach: 41.23
P388 leukemia; dose 3 × 6.25, i.p.
  % T/C, P388 leukemia: 167%
P388 leukemia; dose 3 × 12.5, i.p.
  % T/C, P388 leukemia: 146%
P388 leukemia; dose 3 × 25 (D5W), i.p.
  % T/C, P388 leukemia: 195%
P388 leukemia; dose 3 × 25, i.p.
  % T/C, P388 leukemia: 189%
L1210 leukemia; 3 × 25 mg/kg (D5W) i.p.
  % T/C, L1210 leukemia: 260%
[2]
  IC50: 0.39 µM
